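These data come from cells grown in 96-well plates and exposed to compound for 48 hours at five concentrations. GI50 marks 50% less growth. TGI denotes the concentration required for complete inhibition of growth.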
How the values were obtained:
Assay in all cases: NCI tumour cell line growth inhibition, 48 h
HOP-92 NSCLC = system: HOP-92 NSCLC
M14 melanoma = system: M14 melanoma
NCI-H460 lung = system: NCI-H460 lung
NCI/ADR-RES ovarian = system: NCI/ADR-RES ovarian
OVCAR-3 ovarian = system: OVCAR-3 ovarian
PC-3 prostate = system: PC-3 prostate
SW-620 colon = system: SW-620 colon
T-47D breast = system: T-47D breast
TK-10 renal = system: TK-10 renal
HCT-116 colon = system: HCT-116 colon

SMILES | GI50 (HOP-92 NSCLC) [µM] | TGI (HOP-92 NSCLC) [µM] | GI50 (M14 melanoma) [µM] | TGI (M14 melanoma) [µM] | GI50 (NCI-H460 lung) [µM] | TGI (NCI-H460 lung) [µM] | GI50 (NCI/ADR-RES ovarian) [µM] | TGI (NCI/ADR-RES ovarian) [µM] | GI50 (OVCAR-3 ovarian) [µM] | TGI (OVCAR-3 ovarian) [µM] | GI50 (PC-3 prostate) [µM] | TGI (PC-3 prostate) [µM] | GI50 (SW-620 colon) [µM] | TGI (SW-620 colon) [µM] | GI50 (T-47D breast) [µM] | TGI (T-47D breast) [µM] | GI50 (TK-10 renal) [µM] | TGI (TK-10 renal) [µM] | GI50 (HCT-116 colon) [µM] | TGI (HCT-116 colon) [µM]
C#CC[C@@H]1C[C@]2(C)[C@H]3CC[C@@H]4[C@H]5[C@H](C(=C)C)CC[C@]5(C(=O)O)CC[C@@]4(C)[C@]3(C)CC[C@H]2C(C)(C)[C@H]1O | 1.7 | 4.18 | 2.05 | 4.68 | 1.62 | 3.18 | 2.03 | 5.24 | 1.7 | 3.15 | 1.5 | 3.52 | 1.98 | 4.28 | 1.79 | 4.66 | 1.85 | 4.44 | – | –
CCOC(=O)c1ccc2c(c1)[n+](=O)c(C(=O)c1ccc3ccccc3c1)c(C(F)(F)F)n2[O-] | 1.2 | 2.52 | 1.44 | 2.74 | 1.69 | 3.2 | 1.61 | 3.31 | 0.749 | 2.03 | 0.729 | 2 | 1.52 | 2.92 | 0.86 | 2.32 | 1.89 | 3.3 | 0.373 | 1.46
CC1(C)CC(=O)C(C(c2cccc(O)c2O)C2C(=O)CC(C)(C)CC2=O)C(=O)C1 | – | > 100 | – | > 100 | – | > 100 | – | > 100 | – | > 100 | – | > 100 | – | > 100 | – | > 100 | – | > 100 | – | > 100
CCOCCc1c(O)nc(SC)[nH]c1=O | > 100 | > 100 | > 100 | > 100 | > 100 | > 100 | > 100 | > 100 | > 100 | > 100 | > 100 | > 100 | > 100 | > 100 | > 100 | > 100 | > 100 | > 100 | > 100 | > 100
Fc1ccc(-c2ncn(C3CCNCC3)c2-c2ccnc(Oc3ccccc3)n2)cc1 | 5.75 | > 25 | 9.86 | > 25 | 16.1 | > 25 | > 25 | > 25 | > 25 | > 25 | > 25 | > 25 | > 25 | > 25 | 17.3 | > 25 | 21.2 | > 25 | 14.8 | > 25
CCOC(=O)c1c[nH]c2c(OCc3ccccc3)c3ccccc3c(O)c2c1=O | 27 | 93.5 | 11.3 | > 59.4 | 4.29 | > 47.5 | 10.9 | > 64.7 | 11.1 | 51 | 2.97 | > 68 | 7.95 | > 100 | 18.5 | 69.6 | 16 | 45.5 | 3.74 | > 51.8
O=C(/C=C/c1ccccn1)c1ccccc1O | 2.1 | 4.91 | 2 | 4.28 | 2.28 | 5.17 | 2.87 | 9.07 | 1.71 | 3.5 | 2.92 | 8.29 | 1.92 | 4.02 | 2.45 | 8.36 | 2.28 | 4.95 | 1.85 | 3.75
CC1(C)CC[C@]2(C(=O)n3ccnc3)CC[C@]3(C)[C@H](C(=O)C=C4[C@@]5(C)C=C(C#N)C(=O)C(C)(C)[C@@H]5CC[C@]43C)[C@@H]2C1 | 0.0221 | 0.102 | 0.0287 | 0.196 | < 0.0179 | > 100 | < 0.01 | 0.0895 | < 0.01 | 0.0994 | < 0.0142 | 0.0655 | – | – | 0.0446 | 0.395 | < 0.0132 | < 0.0226 | < 0.0112 | 0.0273
COc1ccccc1CNCCCN1C(=O)c2ccc3c4c(ccc(c24)C1=O)C(=O)N(CCCNCCCCNCCCCN)C3=O | 1.87 | 8.66 | 1.87 | 4.68 | 2.27 | 5.8 | 12.8 | > 100 | 0.475 | 5.93 | 2.5 | 10.3 | 0.417 | 10.1 | 0.782 | 3.14 | 3.71 | 51.7 | 0.407 | –
CSC(=S)N/N=C/c1ccccc1 | – | > 100 | – | > 100 | – | > 100 | – | > 100 | – | > 100 | – | > 100 | – | > 100 | – | 72.1 | – | > 100 | – | > 100
Cc1cc(Cl)ccc1NC(=O)/C(Cl)=C(/Cl)C(=O)O | – | 54.5 | – | 72.1 | – | > 100 | – | 74.2 | – | 36.8 | – | 54.5 | – | 48.9 | – | 57.2 | – | 33.2 | – | 37.9
O=C(c1ccccc1)c1ccc(Cl)c([N+](=O)[O-])c1 | – | – | 4.37 | 17.8 | 18.5 | 39.3 | 21.3 | 58.3 | 3.83 | 12.7 | 8.22 | 29.8 | 5.27 | 21.9 | 7.54 | 38.6 | – | – | 4.78 | 18.1
Nc1ncnc2c1c(-c1cccc(OCc3ccccc3)c1)cn2C1CC(CN2CCCC2)C1 (configuration not stated) | 0.0749 | 0.867 | 1.61 | 3.2 | 1.66 | 7.65 | 5.01 | 21.5 | 4.06 | 14.9 | 2.5 | 10.4 | 1.03 | 3.53 | 2.04 | 6.59 | 1.84 | 5.05 | 1.38 | 5.34
COc1ccc(S(=O)(=O)N2CCN(C(=O)OCc3ccccc3)CC2C(=O)NO)cc1 (configuration not stated) | – | – | > 25 | > 25 | > 25 | > 25 | > 25 | > 25 | 12.1 | > 25 | 17.6 | > 25 | > 25 | > 25 | 12.1 | > 25 | 10.9 | > 25 | > 25 | > 25
COc1ccc(-c2cn(-c3ccc(Cl)cc3)c(=S)[nH]2)cc1OC | 0.333 | 7.63 | – | – | 3.92 | > 100 | 5.3 | > 100 | 47.2 | > 100 | 65.5 | > 100 | > 100 | > 100 | 6.09 | > 100 | 12.1 | > 100 | 3.96 | > 100
C(=N/Nc1ncnc2nc[nH]c12)/c1ccccn1 | 3.14 | 8.72 | 0.766 | 3.63 | 3.29 | > 50.8 | 0.382 | > 22.3 | 0.421 | > 47 | 0.786 | > 100 | 1.71 | > 100 | 0.308 | > 100 | 0.452 | > 100 | 0.46 | > 100
C=C1C(=O)O[C@H]2[C@H]1CC/C(COC(=O)/C=C\C(=O)NCc1ccc(Cn3c(=O)sn(-c4ccc(OC)cc4)c3=O)cc1)=C\CC[C@@]1(C)O[C@@H]21 | 0.587 | 1.36 | 0.603 | 1.36 | 0.804 | 1.81 | 1.11 | 4.32 | 0.245 | 0.898 | 0.542 | 1.32 | 0.272 | 1 | 0.839 | 2.02 | 0.917 | 1.67 | 0.171 | 0.755
O=C(CCCCC(=O)N/N=C\c1ccccc1Cl)N/N=C\c1ccccc1Cl | 1.95 | 19.2 | 2.06 | > 100 | 3.15 | > 100 | 1.2 | > 100 | 0.598 | 28.8 | 0.511 | > 100 | – | – | 3.36 | > 100 | 4.68 | 25.8 | 0.654 | > 100
O=C(Nc1ncc(Cc2ccccc2)s1)c1ccc2c(c1)OCCO2 | 1.35 | > 100 | – | – | 0.0375 | > 34.5 | 0.0395 | > 100 | 0.0336 | 1.01 | 0.0424 | > 100 | 0.0435 | > 100 | 0.0523 | > 100 | 0.154 | – | 0.0405 | > 100
CCOc1cc(C=O)c2c(ccc3ccc(OC)c(OC)c32)c1OC | – | > 100 | – | > 100 | – | > 100 | – | 81.5 | – | > 100 | – | > 100 | – | – | – | > 100 | – | > 100 | – | > 100
O=C(CCCCCCC(=O)N/N=C/c1ccc(N(c2ccccc2)c2ccccc2)cc1)NO | 1.67 | 4.25 | – | – | 1.54 | 8.58 | 3.07 | 20.5 | 1.45 | 4.58 | 2.39 | 10.7 | 2.49 | 14.3 | 0.309 | 2.41 | 0.314 | 1.86 | 0.349 | 1.97
CCCn1cc(C2=C(c3cn(C)c4ccccc34)C(=O)NC2=O)c2ccccc21 | – | – | 1.83 | > 18.2 | 1.04 | 7.39 | 1.32 | 24.5 | 0.596 | 2.35 | 1.03 | > 25 | 0.968 | > 25 | 0.897 | 7.62 | 3.45 | 22 | 1.24 | 8.52
CN(CCCCCl)P(=O)(OCc1ccc([N+](=O)[O-])o1)C(F)(F)c1ccc(CC(=O)N[C@@H](CC(=O)O)C(=O)N[C@@H](Cc2ccc(C(F)(F)P(=O)(OCc3ccc([N+](=O)[O-])o3)N(C)CCCCCl)cc2)C(N)=O)cc1 (some centres not stated) | 22.5 | 52.3 | – | – | > 100 | > 100 | > 100 | > 100 | 37.6 | > 100 | 80.5 | > 100 | 81.9 | > 100 | 39.1 | > 100 | 76.1 | > 100 | – | –
O=C(c1ccccn1)c1nnn2ccccc12 | – | > 100 | – | > 100 | – | > 100 | – | – | – | > 100 | – | > 100 | – | > 100 | – | > 100 | – | > 100 | – | > 100
COc1c(OC(C)=O)c(OC(C)=O)cc2c1-c1ccc(OC)c(=O)cc1C(NC(C)=O)CC2 (configuration not stated) | – | – | – | > 100 | – | 13.1 | – | 74.1 | – | 0.071 | – | > 100 | – | > 100 | – | > 100 | – | > 100 | – | 0.942
O=C(/C=C/C=C/c1ccccc1)c1ccc(Nc2nc(Nc3ccccc3)nc(Nc3ccccc3)n2)cc1 | 0.241 | 17.7 | 77.5 | > 100 | 42.8 | > 100 | > 100 | > 100 | 47.8 | > 100 | – | – | > 100 | > 100 | 4.58 | > 100 | > 100 | > 100 | 12.2 | > 100
O=C(O)CN(CC(=O)O)Cc1cc2c(cc1O)Oc1cc(O)c(CN(CC(=O)O)CC(=O)O)cc1C21OC(=O)c2ccccc21 | – | > 100 | – | > 100 | – | – | – | > 100 | – | > 100 | – | > 100 | – | > 100 | – | > 100 | – | > 100 | – | > 100
CCOC(=O)C1c2[nH]c3ccccc3c2CCN1C(=O)c1ccco1 (configuration not stated) | – | > 10 | – | > 10 | – | – | – | > 10 | – | > 10 | – | > 10 | – | > 10 | – | > 10 | – | > 10 | – | > 10
